From PubChem BioAssay (NCI)
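1) Cells in 96-well plates. 2) Compound, 48 h, 5 concentrations. 3) Linear interpolation between surrounding doses. 4) Unreached endpoint = highest concentration. GI50 is the concentration that inhibits growth by half. TGI is the concentration that stops growth completely.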

Tests used:
Experiment in all cases: NCI tumour cell line growth inhibition, 48 h
[1] = tested on: NCI-H522 lung
[2] = tested on: MCF7 breast
[3] = tested on: NCI-H226 lung
[4] = tested on: PC-3 prostate
[5] = tested on: SNB-19 CNS
[6] = tested on: SF-295 CNS
[7] = tested on: MALME-3M melanoma
[8] = tested on: KM12 colon
[9] = tested on: HCT-116 colon
[10] = tested on: SK-OV-3 ovarian
[11] = tested on: HCC-2998 colon
[12] = tested on: OVCAR-3 ovarian
[13] = tested on: NCI-H460 lung
[14] = tested on: HS 578T breast
[15] = tested on: MOLT-4 leukemia
[16] = tested on: SNB-75 CNS
[17] = tested on: HL-60(TB) leukemia
[18] = tested on: CAKI-1 renal
[19] = tested on: SR leukemia
[20] = tested on: HT29 colon
[21] = tested on: HOP-92 NSCLC
[22] = tested on: UACC-257 melanoma
[23] = tested on: OVCAR-8 ovarian
[24] = tested on: HCT-15 colon
[25] = tested on: NCI-H23 lung
[26] = tested on: NCI/ADR-RES ovarian
[27] = tested on: MDA-MB-231 breast
[28] = tested on: SF-268 CNS
[29] = tested on: OVCAR-4 ovarian
[30] = tested on: IGROV1 ovarian
[31] = tested on: ACHN renal
[32] = tested on: LOX IMVI melanoma
[33] = tested on: BT-549 breast
[34] = tested on: SF-539 CNS
[35] = tested on: U251 CNS
[36] = tested on: RPMI-8226 leukemia
[37] = tested on: UO-31 renal
[38] = tested on: SK-MEL-5 melanoma
[39] = tested on: EKVX NSCLC
[40] = tested on: A498 renal
[41] = tested on: SK-MEL-2 melanoma
[42] = tested on: T-47D breast
[43] = tested on: CCRF-CEM leukemia
[44] = tested on: SN12C renal
[45] = tested on: M14 melanoma
[46] = tested on: COLO 205 colon
[47] = tested on: DU-145 prostate
[48] = tested on: MDA-MB-435
[49] = tested on: SW-620 colon
[50] = tested on: HOP-62 NSCLC
[51] = tested on: OVCAR-5 ovarian
[52] = tested on: K-562 leukemia
[53] = tested on: A549 NSCLC
[54] = tested on: 786-0 renal
[55] = tested on: TK-10 renal
[56] = tested on: UACC-62 melanoma
[57] = tested on: RXF 393 renal
[58] = tested on: SK-MEL-28 melanoma

SMILES: CC[C@]1(O)CC2CN(CCc3c([nH]c4ccccc34)C(C(=O)OC)(c3cc4c(cc3OC)N(C=O)[C@H]3[C@@](O)(C(=O)OC)[C@H](OC(C)=O)[C@]5(CC)[C@@H]6C[C@@H]6CN6CC[C@]43[C@@H]65)C2)C1 (stereo partly drawn)
- GI50 [1]: < 0.00325 µM
- TGI [1]: < 0.00325 µM
- GI50 [2]: < 0.00325 µM
- TGI [2]: > 11.7 µM
- GI50 [3]: 0.245 µM
- TGI [3]: > 16.3 µM
- GI50 [4]: < 0.00325 µM
- TGI [4]: > 12.3 µM
- GI50 [5]: < 0.00325 µM
- TGI [5]: > 32.5 µM
- GI50 [6]: < 0.00325 µM
- TGI [6]: 0.325 µM
- GI50 [7]: 0.104 µM
- TGI [7]: 17.9 µM
- GI50 [8]: < 0.00325 µM
- TGI [8]: 0.00386 µM
- GI50 [9]: < 0.00325 µM
- TGI [9]: 0.00352 µM
- GI50 [10]: < 0.00325 µM
- TGI [10]: < 0.00325 µM
- GI50 [11]: < 0.00325 µM
- TGI [11]: 9.23 µM
- GI50 [12]: < 0.00325 µM
- TGI [12]: < 0.00325 µM
- GI50 [13]: < 0.00325 µM
- TGI [13]: > 11.2 µM
- GI50 [14]: < 0.00325 µM
- TGI [14]: > 32.5 µM
- GI50 [15]: < 0.00325 µM
- TGI [15]: 0.339 µM
- GI50 [16]: < 0.00325 µM
- TGI [16]: 13.4 µM
- GI50 [17]: < 0.00325 µM
- TGI [17]: < 0.00325 µM
- GI50 [18]: 0.0324 µM
- TGI [18]: 12.2 µM
- GI50 [19]: < 0.00325 µM
- TGI [19]: 0.247 µM
- GI50 [20]: < 0.00325 µM
- TGI [20]: 0.033 µM
- GI50 [21]: < 0.00325 µM
- TGI [21]: 0.0121 µM
- GI50 [22]: < 0.00325 µM
- TGI [22]: 4.37 µM
- GI50 [23]: < 0.00325 µM
- GI50 [24]: 0.0365 µM
- TGI [24]: > 32.5 µM
- GI50 [25]: < 0.00325 µM
- GI50 [26]: 0.179 µM
- TGI [26]: 1.23 µM
- GI50 [27]: < 0.00325 µM
- TGI [27]: 0.191 µM
- GI50 [28]: < 0.00325 µM
- TGI [28]: 7.39 µM
- GI50 [29]: < 0.00325 µM
- TGI [29]: > 29.9 µM
- GI50 [30]: < 0.00325 µM
- TGI [30]: > 18 µM
- GI50 [31]: 0.0139 µM
- TGI [31]: > 23.5 µM
- GI50 [32]: < 0.00325 µM
- TGI [32]: > 26 µM
- GI50 [33]: < 0.00325 µM
- TGI [33]: 0.015 µM
- GI50 [34]: < 0.00325 µM
- TGI [34]: < 0.00325 µM
- GI50 [35]: < 0.00325 µM
- TGI [35]: 0.146 µM
- GI50 [36]: < 0.00325 µM
- TGI [36]: 0.0579 µM
- GI50 [37]: 0.173 µM
- TGI [37]: > 19.4 µM
- GI50 [38]: < 0.00325 µM
- TGI [38]: 0.0119 µM
- GI50 [39]: < 0.00325 µM
- TGI [39]: > 32.5 µM
- GI50 [40]: < 0.00325 µM
- TGI [40]: 0.00882 µM
- GI50 [41]: < 0.00325 µM
- TGI [41]: 3.67 µM
- GI50 [42]: 0.228 µM
- GI50 [43]: < 0.00325 µM
- TGI [43]: 0.155 µM
- GI50 [44]: < 0.00325 µM
- TGI [44]: > 32.5 µM
- GI50 [45]: < 0.00325 µM
- TGI [45]: 0.00478 µM
- GI50 [46]: < 0.00325 µM
- TGI [46]: < 0.00325 µM
- GI50 [47]: < 0.00325 µM
- TGI [47]: < 0.00325 µM
- GI50 [48]: < 0.00325 µM
- TGI [48]: < 0.00325 µM
- GI50 [49]: < 0.00325 µM
- TGI [49]: > 32.5 µM
- GI50 [50]: < 0.00325 µM
- TGI [50]: > 13.7 µM
- GI50 [51]: < 0.00325 µM
- TGI [51]: > 32.5 µM
- GI50 [52]: < 0.00325 µM
- TGI [52]: 4.84 µM
- GI50 [53]: < 0.00325 µM
- TGI [53]: > 30.7 µM
- GI50 [54]: < 0.00325 µM
- TGI [54]: 6.65 µM
- GI50 [55]: < 0.00325 µM
- TGI [55]: 17.5 µM
- GI50 [56]: < 0.00325 µM
- TGI [56]: > 21 µM

SMILES: C=CCc1cc(O)ccc1O
- GI50 [1]: 2.49 µM
- TGI [1]: 11.1 µM
- GI50 [2]: 44.3 µM
- TGI [2]: > 100 µM
- GI50 [3]: 44.2 µM
- TGI [3]: > 100 µM
- GI50 [4]: 12.5 µM
- TGI [4]: > 100 µM
- GI50 [5]: > 100 µM
- TGI [5]: > 100 µM
- GI50 [6]: 49.5 µM
- TGI [6]: > 100 µM
- GI50 [7]: 23.6 µM
- TGI [7]: > 100 µM
- GI50 [8]: 13.2 µM
- TGI [8]: 65.1 µM
- GI50 [9]: 16.8 µM
- TGI [9]: 31.1 µM
- GI50 [10]: 94.8 µM
- TGI [10]: > 100 µM
- GI50 [11]: > 100 µM
- TGI [11]: > 100 µM
- GI50 [12]: 7.64 µM
- TGI [12]: 20.7 µM
- GI50 [13]: 46.8 µM
- TGI [13]: > 100 µM
- GI50 [14]: 23.2 µM
- TGI [14]: > 100 µM
- GI50 [15]: 5.87 µM
- TGI [15]: 68.9 µM
- GI50 [16]: 5.74 µM
- TGI [16]: > 100 µM
- GI50 [17]: 2.53 µM
- TGI [17]: 7.04 µM
- GI50 [18]: 23.9 µM
- TGI [18]: > 100 µM
- GI50 [19]: 9.14 µM
- TGI [19]: > 100 µM
- GI50 [20]: 80.2 µM
- TGI [20]: > 100 µM
- GI50 [57]: 26.3 µM
- TGI [57]: > 100 µM
- GI50 [21]: 42.4 µM
- TGI [21]: > 100 µM
- GI50 [22]: > 100 µM
- TGI [22]: > 100 µM
- GI50 [23]: 28.7 µM
- TGI [23]: > 100 µM
- GI50 [24]: 36 µM
- TGI [24]: > 100 µM
- GI50 [25]: > 100 µM
- TGI [25]: > 100 µM
- GI50 [26]: 22.7 µM
- TGI [26]: > 100 µM
- GI50 [27]: 14.1 µM
- TGI [27]: > 100 µM
- GI50 [28]: 16.5 µM
- TGI [28]: > 100 µM
- GI50 [29]: 14 µM
- TGI [29]: 27 µM
- GI50 [30]: 43.4 µM
- TGI [30]: > 100 µM
- GI50 [31]: 15.1 µM
- TGI [31]: 28.3 µM
- GI50 [32]: 17 µM
- TGI [32]: 48.8 µM
- GI50 [33]: 6.16 µM
- TGI [33]: > 100 µM
- GI50 [34]: 14.2 µM
- TGI [34]: 70.2 µM
- GI50 [35]: 36.4 µM
- TGI [35]: > 100 µM
- GI50 [36]: 2.6 µM
- TGI [36]: 34.1 µM
- GI50 [37]: 11 µM
- TGI [37]: 24.4 µM
- GI50 [38]: 43.3 µM
- TGI [38]: > 100 µM
- GI50 [39]: 41.1 µM
- TGI [39]: > 100 µM
- GI50 [40]: > 100 µM
- TGI [40]: > 100 µM
- GI50 [41]: 85.5 µM
- TGI [41]: > 100 µM
- GI50 [42]: 16.9 µM
- TGI [42]: 84.4 µM
- GI50 [43]: 2.34 µM
- TGI [43]: 14.5 µM
- GI50 [44]: 11 µM
- TGI [44]: 49.4 µM
- GI50 [46]: > 100 µM
- TGI [46]: > 100 µM
- GI50 [47]: 85 µM
- TGI [47]: > 100 µM
- GI50 [48]: 19.9 µM
- TGI [48]: 57.1 µM
- GI50 [49]: 21.6 µM
- TGI [49]: 44.8 µM
- GI50 [50]: 29.8 µM
- TGI [50]: > 100 µM
- GI50 [51]: 26.7 µM
- TGI [51]: > 100 µM
- GI50 [58]: > 100 µM
- TGI [58]: > 100 µM
- GI50 [52]: 17.7 µM
- TGI [52]: > 100 µM
- GI50 [53]: > 100 µM
- TGI [53]: > 100 µM
- GI50 [54]: 22.8 µM
- TGI [54]: > 100 µM
- GI50 [55]: 24.9 µM
- TGI [55]: 69.2 µM
- GI50 [56]: 25.2 µM
- TGI [56]: > 100 µM
